Results on 4 compounds are retold here after publication PMC6013238, “Development of novel NEMO-binding domain mimetics for inhibiting IKK/NF-κB activation” (PLoS Biology, 2018).

The structures appear in SMILES notation. Where “and” joins values, the source holds several entries; their conditions need not be identical. Equal values may be shown once.

Series [1] has as its system mdx mice. Nature of the series: Chronic treatment of mdx mice, forelimb grip strength test. The series is classed as in vivo, mouse. The note with it: Fig 7G, single mice. The source says: Fig 7 NBD mimetics improve muscular pathology and grip strength in mdx mice. (A) Shown is the treatment regimen with NBD mimetics in mdx mice. (B) Hematoxylin–eosin staining of TA muscle from 7-wk-old, treated or untreated mdx mice. Images were taken at magnification of 20×. Representative images were shown for each treatment group. […] (E) TA muscle from 7-wk-old, treated or untreated mdx mice was stained with laminin by IHC to outline myofibers. Overall images of TA muscle were shown on the left side, and the inset panel images were shown on the right side. (F) Quantitation of minimum Feret diameter in centrally and noncentrally nucleated myofibers. (G) Forelimb force determined by grip strength test. Five-wk-old (2 wk post treatment) and 7-wk-old (4 wk post treatment) mdx mice, treated or untreated, were tested for forelimb grip strength. Five sequential tests were performed, and the force was normalized to body weight. Data were shown as mean +/− SEM. Dosages used are as follows: SR12343 (30 mg/kg), SR12460 (30 mg/kg), and 8K-NBD peptide (10 mg/kg). n = 6–7 each group. *P < 0.05, **P < 0.01. Underlying data can be found in S1 Data. eMyHC, embryonic myosin heavy chain; IHC, immunohistochemistry; NBD, NEMO-binding domain; NEMO, NF-κB essential modulator; Pax7, paired box protein 7; qRT-PCR, quantitative real-time polymerase chain reaction; TA, tibialis anterior. To determine whether the NBD mimetics improved muscle strength, grip strength was measured 2 wk and 4 wk post treatment to assess forelimb strength (Fig 7G). […] Seven-wk-old treated or untreated mdx mice were measured for forelimb grip strength by using a digital grip strength meter paired with a metal grid (Bioseb, Vitrolles, France). Mice were allowed to grip the metal grid tightly, and readings were obtained by gently pulling the tail backward until release. Five sequential measurements were performed, and the average force was calculated.

The nature of series [2]: Serum AST, ALT and ALP of chronically treated mdx mice. The series is classed as in vivo, mouse. To be noted: for Liver toxicity (serum AST, ALT, ALP): chronically treated mdx mice, 30 mg/kg; for ALP Final Concentration / ALT Final Concentration / AST Final Concentration: serum, individual mouse (FigS3B).
In series [3] the test system is NF-κB activation. The series is described as follows: NF-κB firefly luciferase reporter assay, TNF-α-stimulated stably transfected HEK293 cells. Type of series: cell-based, human. To be noted: for NF-κB luciferase activity normalized to vehicle: Fig 2C, derivatives at 100 μM, TNF-α 10 ng/ml 3 h, vehicle = 100, single experiments; for NF-κB luciferase activity normalized to control: control = 100. As for the experimental part:
To determine whether the small molecules identified by the in silico screening inhibit NF-κB activation, a HEK293 cell line stably expressing a luciferase reporter driven by a synthetic, NF-κB-dependent promoter was utilized. To induce NF-κB activation, cells were treated with 10 ng/mL of TNF-α and harvested 3 h post treatment for analysis of luciferase activity. […] To determine whether ZINC12909780 inhibits NF-κB in a dose-dependent manner, concentrations were tested at 0, 6.25, 25, 50, and 100 μM.
Luciferase activity was normalized to untreated stimulated control cells. […] Cell viability was calculated by normalizing to untreated cells. […] Underlying data can be found in S1 Data.
HEK293 cells stably transfected with luciferase reporter plasmid driven by NF-κB were seeded in 96-well plates in triplicate and pretreated with DMSO or varying small molecules at indicated concentration for 30 min, followed by the stimulation of 10 ng/ml of TNF-α for 3 h. Cells were washed with PBS once and harvested in Passive Lysis Buffer (Promega, Madison, WI). Luciferase assay (Promega) was performed by using a luminometer according to the manufacturer’s instructions.
(In general: A reporter such as luciferase makes a cellular process visible.)

As to `O=C(CNCCc1cc(F)cc(F)c1)Nc1ccc(Cl)cn1` [SR12460], in series [1] (2 week post treatment), the “Forelimb grip strength, force normalized to body weight” value was 5.738 and 3.226 and 3.35. Moreover, the “Forelimb grip strength, force normalized to body weight” value in series [1] (4 week post treatment) was 5.455 and 4.515 and 5.487 and 3.928 and 4.07 and 4.448. Further, in series [2], the “Liver toxicity (serum AST, ALT, ALP)” value is “no overt liver toxicity”; the “ALP Final Concentration” value was 195 U/L and 170 U/L and 160 U/L; the “ALT Final Concentration” value was 215 U/L and 185 U/L; the “AST Final Concentration” value is 1245 U/L and 1330 U/L and 1415 U/L.

On to `O=C(COC(=O)Cc1ccccc1F)Nc1ccc(Cl)cn1` [ZINC5], for which the “NF-κB luciferase activity normalized to vehicle” value in series [3] is 58.79 and 64.16 and 89.81 and 46.87 and 48.05; in series [3] (listed as Zinc5) it was “lowered NF-κB activity robustly”. In addition, the “NF-κB luciferase activity normalized to control” value in series [3] (Fig 2E, 25 μM) was 78.88 and 74.23 and 94.1 and 85.57 and 85.27; in series [3] (Fig 2E, 50 μM) it was 78.97 and 56.84 and 56.56 and 66.34; in series [3] (Fig 2E, 100 μM) it was 40.8 and 50.51 and 60.75 and 33.05 and 42.78.

As to `O=C(CNc1ccc(Cl)cn1)NCCc1cccc(Br)c1` [SR12343], in series [1] (2 week post treatment), the “Forelimb grip strength, force normalized to body weight” value was “significantly improved forelimb strength”. In addition, in series [1] (2 week post treatment, listed as SR 12343), the “Forelimb grip strength, force normalized to body weight” value was 3.61 and 3.7248 and 3.659 and 4.054. The “Forelimb grip strength, force normalized to body weight” value in series [1] (4 week post treatment) was 4.866 and 4.5019 and 4.825 and 4.175 and 4.644 and 3.675 and 4.427. Also, in series [2], the “Liver toxicity (serum AST, ALT, ALP)” value is “no overt liver toxicity”; the “ALP Final Concentration” value was 170 U/L and 225 U/L and 145 U/L; the “ALT Final Concentration” value is 125 U/L and 160 U/L and 150 U/L and 260 U/L; the “AST Final Concentration” value was 775 U/L and 1030 U/L and 875 U/L and 1560 U/L.

As to `Nc1ncccc1C(=O)OCC(=O)Nc1ccc(Cl)cc1F` [ZINC12909780], the “NF-κB luciferase activity normalized to control” value in series [3] (Fig 2B, 6.25 μM (log 0.79588)) was 96.2175 and 102.44 and 115.164; in series [3] (Fig 2B, 25 μM (log 1.39794)), 93.2591 and 96.1802 and 73.5256.
